Measured values: patent US11957646B2, “Methods and compositions of stable phenylephrine formulations” (Paragon BioTeck, Inc., priority 2013, dated 2024)

Assays:
[1] = tested on: vasopressor effect of (−)-epinephrine, (−)-norepinephrine, and tetraethylammonium; conditions: anesthetized rats, infusion of large amount; cited from earlier work
rabbit pupil = assay: Dilation assay of R and S form phenylephrine solutions on rabbits; assay type: in vivo, NZW rabbits; conditions: 10% solution, 3 drops, versus untreated eye
Protocol: Two ophthalmic formulations, formulated 10% Phenylephrine hydrochloride (S-isomer) and the exemplary invention composition, 10% Phenylephrine hydrochloride (R-isomer) were tested for their ocular activity in NZW rabbits.
Both R and S form solutions (10% solution prepared as in Example 1) were test for dilation on rabbits. The first test rabbit received 3 drops of the S form formulation and the second test rabbit received 3 drops of the R form solution.

[2] = Chiral purity by chiral HPLC before and after 6 months storage at 2 to 8° C.; assay type: physicochemical; conditions: 10% solution
Protocol: Column-OJ-RH (150×4.6) mm, Flow: 0.6 ml min-1, Mobile Phase: 0.05% Ethylenediamine in Methanol, Column Temp: 25° C.; Detection wavelength: 270 nm. 4.0 mg sample in 1 mL ethanol was analyzed. The injection volume to HPLC is 3.0 μL.
R-Phenylephrine Hydrochloride Opthalmic Solution, 2.5% and 10% prepared as in Example 1 were stored at 2 to 8° C. The chiral purity of Sample 1 (10% solution) was assessed before low temperature stability test.
The chiral purity of R-Phenylephrine Hydrochloride was determined by the method and conditions as shown in Example 3.

Row | Compound | tachyphylaxis to vasopressor effect [1] | other results
1 | CNC[C@H](O)c1cccc(O)c1 [(−)-phenylephrine] | induces tachyphylaxis | –
2 | CNC[C@@H](O)c1cccc(O)c1 [S-Phenylephrine] | induces tachyphylaxis | pupil dilation (rabbit pupil): dilated the eye only slightly more than that was untreated
3 | CNCCc1ccc(O)c(O)c1 [epinine] | induces tachyphylaxis | –
4 | NCC(O)c1ccc(O)c(O)c1 (single isomer, unassigned; (+)) [(+)-norepinephrine] | induces tachyphylaxis | –
5 | CNCC(O)c1ccc(O)c(O)c1 (single isomer, unassigned; (+)) [(+)-epinephrine] | induces tachyphylaxis | –
6 | CNC[C@H](O)c1cccc(O)c1.Cl [R-Phenylephrine Hydrochloride, (R)-3-hydroxy-α-[(methylamino)methyl]benzenemethanol hydrochloride] | – | chiral purity before storage ([2]; before low temperature stability test): 99.3 % ee; chiral purity after 6 months storage ([2]; stored at 2 to 8° C. for 6 months): 99.3 % ee
